Earlier results, collected in patent publication US20220257614A1, “USE OF 12-LIPOXYGENASE INHIBITORS IN THE TREATMENT OF COVID-19” (New York Medical College, priority 2021, published 2022).

Test system: human islets
Settings: in vitro; background statement

## COc1cccc(CNc2ccc(S(=O)(=O)Nc3nc4ccccc4s3)cc2)c1O [ML-355]
  protection of human islets from inflammatory injury: protect human islets from inflammatory injury
